Reference: ChEMBL document CHEMBL3885861, “Open TG-GATES”

Organism: Rattus norvegicus
Assay: Open TG-GATES - Regimen: Daily Repeat
Assay type: toxicity, organism-based, Sprague-Dawley
Parameters: regimen Daily Repeat, gender Male, age 6 weeks
Conditions: in vivo, po, route gavage; for APTT / Bas / Eos / Fbg / Hb / Ht / Lym / MCH / MCHC / MCV / Mono / Neu / PT / Plat / RBC / Ret / WBC: tissue Blood; for KIDNEY_L / KIDNEY_R / KIDNEY_TOTAL: tissue Kidney; for LIVER: tissue Liver; for A/G / ALP / ALT / AST / BUN / CRE / Ca / Cl / DBIL / GLC / IP / K / LDH / Na / PL / RALB / TBIL / TC / TG / TP / gamma-GTP: tissue Plasma
[1] = 300 mg/kg, 72 h, dose level Middle, time 3 day
[2] = 300 mg/kg, […], dose level Middle, time 7 day
[3] = 300 mg/kg, […], dose level Middle, time 14 day
[4] = 300 mg/kg, […], dose level Middle, time 28 day
[5] = 1000 mg/kg, 72 h, dose level High, time 3 day
[6] = 1000 mg/kg, […], dose level High, time 7 day
[7] = 1000 mg/kg, […], dose level High, time 14 day
[8] = 1000 mg/kg, […], dose level High, time 28 day

O=C(O)c1cc(/N=N/c2ccc(S(=O)(=O)Nc3ccccn3)cc2)ccc1O [SULFASALAZINE]
TERMINAL_BW [1]: 236.9 g
APTT [1]: 18.6 s
Bas [1]: 0%
Eos [1]: 1%
Fbg [1]: 213 mg/dL
Hb [1]: 13.2 g/dL
Ht [1]: 38.4%
Lym [1]: 81.6%
MCH [1]: 21.8 pg
MCHC [1]: 34.5%
MCV [1]: 63.2 fL
Mono [1]: 2.2%
Neu [1]: 14%
PT [1]: 12.5 s
Plat [1]: 146.1 x10_4/uL
RBC [1]: 607.4 x10_4/ul
Ret [1]: 5.7%
WBC [1]: 109.3 x10_2/uL
KIDNEY_L [1]: 1 g
KIDNEY_R [1]: 1 g
KIDNEY_TOTAL [1]: 2 g
LIVER [1]: 11.1 g
A/G [1]: 1.5
ALP [1]: 1050.4 IU/L
ALT [1]: 37 IU/L
AST [1]: 69.6 IU/L
BUN [1]: 16.4 mg/dL
CRE [1]: 0.4 mg/dL
Ca [1]: 10.9 mg/dL
Cl [1]: 103.2 meq/L
DBIL [1]: 0.092 mg/dL
GLC [1]: 202.6 mg/dL
IP [1]: 6.8 mg/dL
K [1]: 3.9 meq/L
LDH [1]: 257.2 IU/L
Na [1]: 141 meq/L
PL [1]: 156.6 mg/dL
RALB [1]: 3.4 g/dL
TBIL [1]: 0.2 mg/dL
TC [1]: 81 mg/dL
TG [1]: 86.6 mg/dL
TP [1]: 5.6 g/dL
gamma-GTP [1]: 1.4 IU/L
TERMINAL_BW [2]: 264.7 g
TERMINAL_BW [3]: 309.2 g
TERMINAL_BW [4]: 365.3 g
APTT [2]: 18.5 s
Bas [2]: 0%
Eos [2]: 1%
Fbg [2]: 212.4 mg/dL
Hb [2]: 13.6 g/dL
Ht [2]: 39.4%
Lym [2]: 79.4%
MCH [2]: 21.4 pg
MCHC [2]: 34.5%
MCV [2]: 62 fL
Mono [2]: 2.6%
Neu [2]: 15.6%
PT [2]: 12.9 s
Plat [2]: 124.9 x10_4/uL
RBC [2]: 636.2 x10_4/ul
Ret [2]: 5.3%
WBC [2]: 123 x10_2/uL
APTT [3]: 18.5 s
Bas [3]: 0%
Eos [3]: 1%
Fbg [3]: 214.6 mg/dL
Hb [3]: 14.8 g/dL
Ht [3]: 41.7%
Lym [3]: 83.4%
MCH [3]: 21.2 pg
MCHC [3]: 35.4%
MCV [3]: 59.8 fL
Mono [3]: 2.6%
Neu [3]: 11.6%
PT [3]: 12.7 s
Plat [3]: 114.3 x10_4/uL
RBC [3]: 698 x10_4/ul
Ret [3]: 4.3%
WBC [3]: 109.2 x10_2/uL
APTT [4]: 18.2 s
Bas [4]: 0%
Eos [4]: 1%
Fbg [4]: 199 mg/dL
Hb [4]: 15.2 g/dL
Ht [4]: 42.2%
Lym [4]: 81.2%
MCH [4]: 20.1 pg
MCHC [4]: 35.9%
MCV [4]: 56 fL
Mono [4]: 2.4%
Neu [4]: 14.4%
PT [4]: 12.8 s
Plat [4]: 100.8 x10_4/uL
RBC [4]: 753.6 x10_4/ul
Ret [4]: 3%
WBC [4]: 88.7 x10_2/uL
KIDNEY_L [2]: 1.1 g
KIDNEY_R [2]: 1.1 g
KIDNEY_TOTAL [2]: 2.2 g
KIDNEY_L [3]: 1.2 g
KIDNEY_R [3]: 1.2 g
KIDNEY_TOTAL [3]: 2.4 g
KIDNEY_L [4]: 1.3 g
KIDNEY_R [4]: 1.3 g
KIDNEY_TOTAL [4]: 2.6 g
LIVER [2]: 11.8 g
LIVER [3]: 13 g
LIVER [4]: 13.6 g
A/G [2]: 1.7
ALP [2]: 838.8 IU/L
ALT [2]: 36.8 IU/L
AST [2]: 66.2 IU/L
BUN [2]: 15.8 mg/dL
CRE [2]: 0.4 mg/dL
Ca [2]: 10.7 mg/dL
Cl [2]: 103.6 meq/L
DBIL [2]: 0.088 mg/dL
GLC [2]: 213.8 mg/dL
IP [2]: 7 mg/dL
K [2]: 3.7 meq/L
LDH [2]: 186.6 IU/L
Na [2]: 140.8 meq/L
PL [2]: 144.4 mg/dL
RALB [2]: 3.5 g/dL
TBIL [2]: 0.1 mg/dL
TC [2]: 70.8 mg/dL
TG [2]: 83 mg/dL
TP [2]: 5.6 g/dL
gamma-GTP [2]: 1.4 IU/L
A/G [3]: 1.4
ALP [3]: 901 IU/L
ALT [3]: 37.2 IU/L
AST [3]: 64.8 IU/L
BUN [3]: 18 mg/dL
CRE [3]: 0.5 mg/dL
Ca [3]: 10.7 mg/dL
Cl [3]: 102.8 meq/L
DBIL [3]: 0.094 mg/dL
GLC [3]: 190.6 mg/dL
IP [3]: 7.1 mg/dL
K [3]: 3.6 meq/L
LDH [3]: 204.6 IU/L
Na [3]: 141 meq/L
PL [3]: 151.2 mg/dL
RALB [3]: 3.5 g/dL
TBIL [3]: 0.2 mg/dL
TC [3]: 70.4 mg/dL
TG [3]: 105.8 mg/dL
TP [3]: 6 g/dL
gamma-GTP [3]: 2 IU/L
A/G [4]: 1.5
ALP [4]: 668.8 IU/L
ALT [4]: 37.4 IU/L
AST [4]: 63.6 IU/L
BUN [4]: 18 mg/dL
CRE [4]: 0.5 mg/dL
Ca [4]: 10.3 mg/dL
Cl [4]: 103.8 meq/L
DBIL [4]: 0.082 mg/dL
GLC [4]: 214.2 mg/dL
IP [4]: 6.3 mg/dL
K [4]: 3.3 meq/L
LDH [4]: 134.4 IU/L
Na [4]: 141.8 meq/L
PL [4]: 128.6 mg/dL
RALB [4]: 3.5 g/dL
TBIL [4]: 0.1 mg/dL
TC [4]: 59.6 mg/dL
TG [4]: 92.6 mg/dL
TP [4]: 5.9 g/dL
gamma-GTP [4]: 1.2 IU/L
TERMINAL_BW [5]: 221.5 g
APTT [5]: 18 s
Bas [5]: 0%
Eos [5]: 0.8%
Fbg [5]: 215 mg/dL
Hb [5]: 14.4 g/dL
Ht [5]: 42%
Lym [5]: 87.2%
MCH [5]: 21.4 pg
MCHC [5]: 34.2%
MCV [5]: 62.4 fL
Mono [5]: 2%
Neu [5]: 8.8%
PT [5]: 13.1 s
Plat [5]: 127.1 x10_4/uL
RBC [5]: 674.2 x10_4/ul
Ret [5]: 3.4%
WBC [5]: 93.4 x10_2/uL
KIDNEY_L [5]: 1 g
KIDNEY_R [5]: 1 g
KIDNEY_TOTAL [5]: 1.9 g
LIVER [5]: 10.2 g
A/G [5]: 1.6
ALP [5]: 888.8 IU/L
ALT [5]: 49.4 IU/L
AST [5]: 77.4 IU/L
BUN [5]: 20.8 mg/dL
CRE [5]: 0.4 mg/dL
Ca [5]: 10.8 mg/dL
Cl [5]: 103.6 meq/L
DBIL [5]: 0.094 mg/dL
GLC [5]: 187.4 mg/dL
IP [5]: 6.8 mg/dL
K [5]: 3.6 meq/L
LDH [5]: 252.8 IU/L
Na [5]: 141 meq/L
PL [5]: 149.2 mg/dL
RALB [5]: 3.5 g/dL
TBIL [5]: 0.1 mg/dL
TC [5]: 78.4 mg/dL
TG [5]: 70 mg/dL
TP [5]: 5.6 g/dL
gamma-GTP [5]: 1.4 IU/L
TERMINAL_BW [6]: 246.1 g
TERMINAL_BW [7]: 276.8 g
TERMINAL_BW [8]: 334.1 g
APTT [6]: 19.3 s
Bas [6]: 0%
Eos [6]: 0.6%
Fbg [6]: 197 mg/dL
Hb [6]: 14.1 g/dL
Ht [6]: 40.8%
Lym [6]: 86.2%
MCH [6]: 21.2 pg
MCHC [6]: 34.7%
MCV [6]: 61.1 fL
Mono [6]: 2.6%
Neu [6]: 9.6%
PT [6]: 13.6 s
Plat [6]: 106.1 x10_4/uL
RBC [6]: 667.6 x10_4/ul
Ret [6]: 4.5%
WBC [6]: 106.7 x10_2/uL
APTT [7]: 19.4 s
Bas [7]: 0%
Eos [7]: 0.8%
Fbg [7]: 200.6 mg/dL
Hb [7]: 15.2 g/dL
Ht [7]: 42.7%
Lym [7]: 85.4%
MCH [7]: 20.2 pg
MCHC [7]: 35.6%
MCV [7]: 57 fL
Mono [7]: 1.8%
Neu [7]: 10.8%
PT [7]: 13.4 s
Plat [7]: 106.3 x10_4/uL
RBC [7]: 750.2 x10_4/ul
Ret [7]: 3%
WBC [7]: 132.9 x10_2/uL
APTT [8]: 18.9 s
Bas [8]: 0%
Eos [8]: 1%
Fbg [8]: 206.2 mg/dL
Hb [8]: 14.9 g/dL
Ht [8]: 41.8%
Lym [8]: 84%
MCH [8]: 19.5 pg
MCHC [8]: 35.6%
MCV [8]: 54.7 fL
Mono [8]: 1.8%
Neu [8]: 12.6%
PT [8]: 13.3 s
Plat [8]: 101.4 x10_4/uL
RBC [8]: 763.6 x10_4/ul
Ret [8]: 4.2%
WBC [8]: 116.9 x10_2/uL
KIDNEY_L [6]: 1 g
KIDNEY_R [6]: 1 g
KIDNEY_TOTAL [6]: 2.1 g
KIDNEY_L [7]: 1.1 g
KIDNEY_R [7]: 1.2 g
KIDNEY_TOTAL [7]: 2.2 g
KIDNEY_L [8]: 1.3 g
KIDNEY_R [8]: 1.3 g
KIDNEY_TOTAL [8]: 2.6 g
LIVER [6]: 10.8 g
LIVER [7]: 11.1 g
LIVER [8]: 12.9 g
A/G [6]: 1.6
ALP [6]: 756.2 IU/L
ALT [6]: 46 IU/L
AST [6]: 74 IU/L
BUN [6]: 19.8 mg/dL
CRE [6]: 0.4 mg/dL
Ca [6]: 10.7 mg/dL
Cl [6]: 104.6 meq/L
DBIL [6]: 0.068 mg/dL
GLC [6]: 202.8 mg/dL
IP [6]: 7.2 mg/dL
K [6]: 3.4 meq/L
LDH [6]: 216.4 IU/L
Na [6]: 142.4 meq/L
PL [6]: 118 mg/dL
RALB [6]: 3.5 g/dL
TBIL [6]: 0.1 mg/dL
TC [6]: 63 mg/dL
TG [6]: 36.4 mg/dL
TP [6]: 5.7 g/dL
gamma-GTP [6]: 1.4 IU/L
A/G [7]: 1.6
ALP [7]: 776.2 IU/L
ALT [7]: 47.6 IU/L
AST [7]: 75.2 IU/L
BUN [7]: 21.2 mg/dL
CRE [7]: 0.5 mg/dL
Ca [7]: 10.7 mg/dL
Cl [7]: 103 meq/L
DBIL [7]: 0.068 mg/dL
GLC [7]: 186.2 mg/dL
IP [7]: 6.7 mg/dL
K [7]: 3.5 meq/L
LDH [7]: 196.6 IU/L
Na [7]: 141.8 meq/L
PL [7]: 122.2 mg/dL
RALB [7]: 3.7 g/dL
TBIL [7]: 0.1 mg/dL
TC [7]: 67.2 mg/dL
TG [7]: 33.8 mg/dL
TP [7]: 6.1 g/dL
gamma-GTP [7]: 1.4 IU/L
A/G [8]: 1.6
ALP [8]: 655 IU/L
ALT [8]: 44.8 IU/L
AST [8]: 68.6 IU/L
BUN [8]: 19.8 mg/dL
CRE [8]: 0.5 mg/dL
Ca [8]: 10.4 mg/dL
Cl [8]: 103.6 meq/L
DBIL [8]: 0.074 mg/dL
GLC [8]: 206.8 mg/dL
IP [8]: 6.2 mg/dL
K [8]: 3.3 meq/L
LDH [8]: 137.6 IU/L
Na [8]: 143.2 meq/L
PL [8]: 108.6 mg/dL
RALB [8]: 3.8 g/dL
TBIL [8]: 0.1 mg/dL
TC [8]: 62.2 mg/dL
TG [8]: 27.6 mg/dL
TP [8]: 6.1 g/dL
gamma-GTP [8]: 1.4 IU/L
